Test results as given in article PMC4604621, “Cytotoxicity, nitric oxide and acetylcholinesterase inhibitory activity of three limonoids isolated from Trichilia welwitschii (Meliaceae)” (Biological Research, 2015).
Values after ≈ are worked out from the molar mass of the structure shown. Where two headings read alike, the source gives them in different places.

Key:
[1] = MTT cytotoxicity assay on Vero cells; assay type: cell-based; conditions: monkey
Experimental: (§1) Cells lines including human monocytic THP-1, murine macrophage RAW 264.7 and the Vero monkey kidney cell lines were obtained from the American Type Culture Collection (Rockville, MD, USA). They were maintained in DMEM supplemented with 10 % fetal calf serum (FCS) and 1 % penicillin/streptomycin/fongizone (PSF) under standard cell culture conditions at 37 °C and 5 % CO2 in a humidified environment.
(§2) The cytotoxicity of compounds was determined by the 3-[4,5-dimethylthiazol-2-yl]-2,5-diphenyltetrazolium (MTT) assay as previously described. The selectivity index (SI) values were calculated by dividing cytotoxicity LC50 values of normal Vero cells by the LC50 of cancer cells in the same units.

[2] = test system: human monocytic THP-1; assay: MTT cytotoxicity assay on THP-1 cells; assay type: cell-based
Experimental: as §1, §2

[3] = biological target: T1, acetylcholinesterase (AChE) enzyme from electric eels (Electrophorus electricus, UniProt O42275); assay: biochemical; conditions: for inhibition at 6.25 µg/mL / inhibition at 12.5 µg/mL / inhibition at 25 µg/mL / inhibition at 50 µg/mL: read-out: % AChE inhibition; for IC50: read-out: AChE inhibition IC50 (converted)
T1 construct: purchased Sigma (Germany) type VI-S lyophilized powder (catalogue number not given)
Experimental: Inhibition of acetylcholinesterase activity was determined using Ellman’s colorimetric method with slight modifications. […] Then, AChE (0.2 U/mL) was added to the wells and the absorbance was determined spectrophotometrically (BioTek Synergy microplate reader) at 405 nm. Distilled water was used as negative control. […] The IC50 values of samples leading to 50 % inhibition were calculated by plotting the percentage of inhibition against the concentrations.

[4] = test system: RAW 264.7 macrophages; assay: Cell viability of LPS-activated RAW 264.7 macrophages (MTT); assay type: cell-based, murine; conditions: Fig. 1b, at the concentration leading to effective inhibition of NO production
Experimental: To determine whether the observed nitric oxide inhibition was not due to cytotoxic effects, MTT assay was also performed on the macrophage cells as previously described.

[5] = test system: murine macrophage RAW 264.7; assay: MTT cytotoxicity assay on RAW 264.7 cells; assay type: cell-based; conditions: Mus musculus
Experimental: as §1, §2

[6] = test system: nitric oxide production in LPS-stimulated RAW 264.7 macrophages; assay: Nitric oxide production in LPS-activated RAW 264.7 macrophages (Griess reagent); assay type: cell-based, murine; conditions: 0.5 µg/mL compound, 1 µg/mL LPS, 24 h
Experimental: Fig. 1 Inhibitory activity of three limonoids isolated from Trichilia welwitschii on nitrix oxide production. The RAW 264.7 macrophages cells were seeded in 96 well-microtitre plates and were activated by incubation in medium containing 1 µg/mL LPS alone (control) or lipopolysaccharide with different concentrations of the samples dissolved in DMSO. Nitric oxide released from macrophages was determined by measuring the nitrite concentration in culture supernatant using the Griess reagent. The concentrations of nitrite were derived from regression analysis using serial dilutions of sodium nitrite as a standard. Percentage inhibition was calculated based on the ability of compounds to inhibit nitric oxide formation by cells compared with the control (cells in media without compounds), which was considered as 0 % inhibition.
The RAW 264.7 macrophages cells were seeded in 96 well-microtitre plates and were activated by incubation in medium containing 1 µg/mL LPS alone (control) or lipopolysaccharide with different concentrations of the samples dissolved in DMSO. […]
Nitric oxide released from macrophages was determined by measuring the nitrite concentration in culture supernatant using the Griess reagent. […] The absorbance of the resultant solutions was determined on a BioTek Synergy microplate reader after 10 min at 550 nm. […]

[7] = test system: nitric oxide production from LPS-activated macrophages; conditions: read-out: IC50 against nitric oxide production; cited from earlier work
[8] = Vero kidney cells, Vero cells, MTT, read-out: Cytotoxicity LC50 Vero
[9] = THP-1, read-out: Cytotoxicity LC50 THP-1
[10] = RAW264.7, read-out: Cytotoxicity LC50 RAW 264.7
[11] = human, mouse, THP-1 and RAW 264.7 cells (range over the cell lines), range over the cell lines tested (Vero, THP-1, RAW 264.7), read-out: LC50 values (range over the cell lines)
[12] = RAW264.7, RAW 264.7 cells, MTT, read-out: Cytotoxicity LC50 RAW 264.7

T1 sequence (O42275 24-633): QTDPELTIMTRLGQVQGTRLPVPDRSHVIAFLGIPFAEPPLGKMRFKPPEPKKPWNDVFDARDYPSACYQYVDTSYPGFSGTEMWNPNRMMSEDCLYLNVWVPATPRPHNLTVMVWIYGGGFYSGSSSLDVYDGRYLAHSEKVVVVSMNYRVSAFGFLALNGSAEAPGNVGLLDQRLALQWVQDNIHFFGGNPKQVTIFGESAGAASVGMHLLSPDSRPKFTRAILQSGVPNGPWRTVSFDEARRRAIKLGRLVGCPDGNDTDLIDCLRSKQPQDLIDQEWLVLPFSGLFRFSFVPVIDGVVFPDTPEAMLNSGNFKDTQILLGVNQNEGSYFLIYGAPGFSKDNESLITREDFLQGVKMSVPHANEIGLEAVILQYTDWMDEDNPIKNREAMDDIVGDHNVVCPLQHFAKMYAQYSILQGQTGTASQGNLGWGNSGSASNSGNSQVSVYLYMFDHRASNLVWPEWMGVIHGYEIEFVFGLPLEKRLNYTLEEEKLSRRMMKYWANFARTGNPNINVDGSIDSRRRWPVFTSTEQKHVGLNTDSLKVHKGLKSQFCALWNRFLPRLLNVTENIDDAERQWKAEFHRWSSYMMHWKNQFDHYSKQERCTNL

Row | SMILES | CC50 [1, 8] | CC50 [2, 9] | inhibition at 6.25 µg/mL [3] | inhibition at 12.5 µg/mL [3] | inhibition at 25 µg/mL [3] | inhibition at 50 µg/mL [3] | IC50 [3] | Cytotoxicity against RAW 264.7 macrophages by MTT assay [4] | CC50 [5, 10] | Amount of nitric oxide released [6] | IC50 [7] | CC50 [1, 11] | CC50 [5, 12] | CC50 ([2]; THP-1 cells, MTT, read-out: Cytotoxicity LC50 THP-1)
1 | C=C1[C@@]23O[C@@H]2C[C@@H](c2ccoc2)[C@]3(C)[C@@H](OC(=O)C(O)C(C)CC)[C@H](C(=O)O)[C@]1(C)[C@](C)(C1CC(=O)O[C@]1(C)CO)[C@H](CC(=O)OC)OC(C)=O (stereo partly drawn) [Compound 1, trichilia lactone D5] | 89.2 ± 5 µg/mL (≈ 124 µM) | 81.2 ± 6.38 µg/mL (≈ 113 µM) | 28 ± 6.56% | 18 ± 8.89% | 71.7 ± 6.03% | 94.3 ± 8.15% | 26.6 µM | slight toxic effect | 23.6 ± 5.77 µg/mL (≈ 32.8 µM) | – | – | – | – | –
2 | C=C1[C@@]2(O)C(=O)C[C@@H](c3ccoc3)[C@]2(C)[C@@H](OC(=O)C(O)C(C)CC)[C@@H]2O[C@H]3CC(=O)O[C@]4(C)COC(=O)CC4[C@@]3(C)[C@]12C (stereo partly drawn) [Compound 2, rohituka 3] | 85.2 ± 6.31 µg/mL (≈ 139 µM) | 81.2 ± 4.04 µg/mL (≈ 132 µM) | 14 ± 6% | 47.3 ± 2.08% | 67 ± 4.36% | 82.7 ± 7.04% | 55.6 µM | – | 65.7 ± 3.64 µg/mL (≈ 107 µM) | 2.97 µM | – | – | – | –
3 | CC[C@H](C)C(=O)O[C@H]1C(C)(C)[C@H](CC(=O)OC)[C@@]2(C)[C@H]3CC[C@]4(C)C(=CC(=O)O[C@H]4c4ccoc4)[C@]34O[C@@]2(O)[C@@]1(O)[C@H]4OC(=O)[C@@H](C)CC [xylorumphiin I] | – | – | – | – | – | – | – | – | – | – | 31.3 µM | – | – | –
4 | C=C1[C@@]23O[C@@H]2C[C@@H](c2ccoc2)[C@]3(C)[C@@H](OC(=O)C(O)C(C)CC)[C@@H]2O[C@H]3CC(=O)O[C@]4(C)COC(=O)CC4[C@@]3(C)[C@]12C (stereo partly drawn) [Compound 3, dregeanin DM4] | 75.8 ± 1.85 µg/mL (≈ 127 µM) | 84.5 ± 5.81 µg/mL (≈ 141 µM) | 30.3 ± 3.51% | 31.7 ± 5.2% | 70.7 ± 3.5% | 87 ± 8.74% | 76.3 µM | – | 61.9 ± 4.14 µg/mL (≈ 103 µM) | 2.93 µM | – | – | – | –
5 | COc1cccc2c1C(=O)c1c(O)c3c(c(O)c1C2=O)C[C@@](O)(C(=O)CO)C[C@@H]3O[C@H]1C[C@H](N)[C@H](O)[C@H](C)O1 [Doxorubicin] | 9.35 ± 0.66 µg/mL (≈ 17.2 µM) | – | – | – | – | – | – | – | – | – | – | 1.06 to 9.35 µg/mL (≈ 1.95 to 17.2 µM) | 1.06 ± 0.65 µg/mL (≈ 1.95 µM) | –
6 | CC[C@H](C)C(=O)O[C@H]1[C@@]23O[C@]4(O)[C@@](C)([C@@H](CC(=O)OC)C(C)(C)[C@H](OC(=O)C(C)C)[C@]14O)[C@H]2CC[C@]1(C)[C@H]3CC(=O)O[C@H]1c1ccoc1 [2-hydroxyxylorumphiin F] | – | – | – | – | – | – | – | – | – | – | 24.5 µM | – | – | –
7 | COc1ccc(C[C@H](N)C(=O)N[C@H]2[C@@H](O)[C@H](n3cnc4c(N(C)C)ncnc43)O[C@@H]2CO)cc1 [Puromycin, reference compound] | 5.32 ± 0.9 µg/mL (≈ 11.3 µM) | – | – | – | – | – | – | – | – | – | – | 1.15 to 5.32 µg/mL (≈ 2.44 to 11.3 µM) | 1.15 ± 0.17 µg/mL (≈ 2.44 µM) | 0.4 ± 0.02 µg/mL (≈ 0.848 µM)
